The source of these data is article PMC12706802, “Ortho-Hydroxyanilides: Slow-Acting, Selective Histone Deacetylase 1/2 Inhibitors Suitable for Photocaging Applications” (ACS Pharmacology & Translational Science, 2025).

Data set [1] deals with HDAC6. The arrangement: method as in earlier work. To be noted: Figure 1; ref 'Data taken from refs' (numbers not given); cited from earlier work.
For data set [2], the system named is MV-3 cells. Description: MTT cell viability (antiproliferative) assay. The class given is cell-based, human. The note with it: Homo sapiens, read-out: MV-3 EC50 (MTT). How it is done:
(§1) To evaluate the cytotoxicity of the selected HDAC inhibitors, compounds were tested for their antiproliferative activity against MV-3 and MDA-MB-231 cells using the MTT assay. […] MTT (3-(4,5-dimethylthiazol-2-yl)-2,5-diphenyltetrazolium bromide; Catalog# A2231; BioChemica, Applichem GmbH, Darmstadt, Germany) was utilized to measure the antiproliferative effect. Depending on the incubation time, 3000 MV-3 cells (72 h), 2000 MV-3 cells (96 h) or 1000 MV-3 cells (120 h) per well were seeded in 96-well plates (Starlab GmbH, Hamburg, Germany) with each well containing 199 μL of volume. […] Next, predilutions of the test compounds were prepared in DMSO. […] Subsequently, cells were treated with 1.0 μL of the dilution series of the test compounds. […] After removing the supernatant, formazan was solubilized in 200.0 μL DMSO. The absorbance was measured at 570 nm with background subtraction at 690 nm using a Multiskan microplate photometer (Thermo Fisher Scientific, Waltham, MA, USA). The obtained data were normalized to PBS, considering 100% viability.

Data set [3] has as its system MDA-MB-231 cells. In words: MTT cell viability (antiproliferative) assay. To be noted: Homo sapiens, MDA-MB-231, light or radiation study. Type of data set: cell-based. The protocol: as §1
Data set [4] in a line: HPLC photolysis experiments (release of ST13 from ST17). Type of data set: physicochemical. The note with it: 10 min. How it is done: The deprotection of ST17 and its effective conversion (82%) to its parent HDAC inhibitor ST13 upon irradiation (10 min; λ = 365 nm) was confirmed by high-performance liquid chromatography (HPLC) experiments (see Figure S3, Supporting Information). Next, ST17 was tested for its inhibitory activity against HDAC1, HDAC2, HDAC3, and HDAC6 with and without irradiation at 365 nm (see Table ).
For the deprotection experiments, 10 μL of a 1 mM ST17 solution in DMSO were irradiated for 10 min. Subsequently, samples were diluted with acetonitrile to a final concentration of 100 μM and analyzed via HPLC/UV (λquant = 250 nm) using the area under the curve (area [mAU × min]) for quantification. The amount of ST13 released from the photocager ST17 was quantified using a calibration curve of ST13 (see Figure S2).

In data set [5] the test system is HDACs in MV-3 cells. In words: HDAC whole cell inhibition assay. To be noted: for EC50: Homo sapiens, MV-3, light or radiation study, read-out: whole-cell HDAC inhibition EC50, MV-3.
Experimental: (§2) Furthermore, we determined the EC50 values in the nontumorigenic cell line HEK293 and in the hematological cancer cell line MM.1S.
(§3) For this purpose, 3-fold serial dilutions of test compounds (DMSO) were prepared and added at a volume of 0.5 μL to the cells. […] MAL was used in a final concentration of 0.3 mM in the respective cell culture medium with 0.5% IGEPAL CA-630 (Catalog# J61055, Alfa Aesar). […] The obtained data were normalized to vehicle treated cells, considering 100% enzyme activity. IC50 values were determined by generating dose–response curves using the four-parameter logistic equation (GraphPad Prism 8.0, San Diego, USA).
Data set [6] has as its system HDACs in MDA-MB-231 cells. In words: HDAC whole cell inhibition assay. The note with it: for EC50: Homo sapiens, MDA-MB-231, light or radiation study, read-out: whole-cell HDAC inhibition EC50, MDA-MB-231.
Experimental: as §2, §3
Data set [7] deals with HDAC1 (Homo sapiens, UniProt Q13547). In words: Fluorescence-based biochemical HDAC enzyme inhibition assay (ZMAL substrate).
Sequence of HDAC1 (Q13547 whole entry): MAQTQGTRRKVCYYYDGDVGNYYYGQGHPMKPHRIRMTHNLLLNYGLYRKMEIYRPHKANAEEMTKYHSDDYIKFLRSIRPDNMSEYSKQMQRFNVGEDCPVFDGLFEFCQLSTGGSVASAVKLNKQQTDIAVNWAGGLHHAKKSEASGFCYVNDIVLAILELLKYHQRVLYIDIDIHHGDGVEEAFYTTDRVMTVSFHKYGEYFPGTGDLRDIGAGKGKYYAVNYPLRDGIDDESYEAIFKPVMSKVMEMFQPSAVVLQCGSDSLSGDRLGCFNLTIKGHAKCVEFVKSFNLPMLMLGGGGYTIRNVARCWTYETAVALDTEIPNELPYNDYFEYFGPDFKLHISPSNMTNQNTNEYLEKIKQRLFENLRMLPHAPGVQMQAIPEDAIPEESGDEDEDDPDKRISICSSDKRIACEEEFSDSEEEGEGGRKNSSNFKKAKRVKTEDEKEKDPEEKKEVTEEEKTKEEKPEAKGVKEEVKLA
Experimental: (§4) First, the inhibitory activity and isoform selectivity of compounds and controls (see Figure ) was evaluated in a fluorescence-based biochemical HDAC inhibition assay against recombinant HDAC1, HDAC2, HDAC3, and HDAC6. […] First, 3-fold serial dilutions of test compounds were prepared in DMSO. […] IC50 values were determined by generating normalized dose–response curves using the three-parameter logistic equation (GraphPad Prism 8.0, San Diego, USA).
Data set [8] addresses HDAC2 (Homo sapiens, UniProt Q92769). Described as above.
Experimental: as §4
Data set [9] deals with human recombinant HDAC3 (Homo sapiens, UniProt O15379). The description is as above.
Sequence of human recombinant HDAC3 (O15379 whole entry): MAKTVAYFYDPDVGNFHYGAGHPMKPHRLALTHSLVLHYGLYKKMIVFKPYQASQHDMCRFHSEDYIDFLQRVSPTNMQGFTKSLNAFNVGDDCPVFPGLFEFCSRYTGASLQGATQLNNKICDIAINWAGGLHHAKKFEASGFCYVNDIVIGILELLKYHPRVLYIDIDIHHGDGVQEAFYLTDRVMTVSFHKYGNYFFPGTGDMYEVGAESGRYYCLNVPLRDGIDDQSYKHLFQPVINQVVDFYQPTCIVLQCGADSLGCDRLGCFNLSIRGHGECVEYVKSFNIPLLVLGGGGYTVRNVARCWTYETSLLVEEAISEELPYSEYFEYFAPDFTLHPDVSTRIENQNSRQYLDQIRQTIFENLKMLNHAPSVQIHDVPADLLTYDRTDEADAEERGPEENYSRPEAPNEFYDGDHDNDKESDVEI
Sequence of human recombinant HDAC3 (Q9Y618 395-489 partner limits assumed): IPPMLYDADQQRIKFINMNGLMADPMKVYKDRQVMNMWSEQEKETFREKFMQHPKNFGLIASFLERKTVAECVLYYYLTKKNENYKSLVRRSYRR
Experimental: as §4
Data set [10] concerns the target T1, human recombinant HDAC6 (Homo sapiens, UniProt Q9UBN7).
T1 sequence (Q9UBN7 1-1215): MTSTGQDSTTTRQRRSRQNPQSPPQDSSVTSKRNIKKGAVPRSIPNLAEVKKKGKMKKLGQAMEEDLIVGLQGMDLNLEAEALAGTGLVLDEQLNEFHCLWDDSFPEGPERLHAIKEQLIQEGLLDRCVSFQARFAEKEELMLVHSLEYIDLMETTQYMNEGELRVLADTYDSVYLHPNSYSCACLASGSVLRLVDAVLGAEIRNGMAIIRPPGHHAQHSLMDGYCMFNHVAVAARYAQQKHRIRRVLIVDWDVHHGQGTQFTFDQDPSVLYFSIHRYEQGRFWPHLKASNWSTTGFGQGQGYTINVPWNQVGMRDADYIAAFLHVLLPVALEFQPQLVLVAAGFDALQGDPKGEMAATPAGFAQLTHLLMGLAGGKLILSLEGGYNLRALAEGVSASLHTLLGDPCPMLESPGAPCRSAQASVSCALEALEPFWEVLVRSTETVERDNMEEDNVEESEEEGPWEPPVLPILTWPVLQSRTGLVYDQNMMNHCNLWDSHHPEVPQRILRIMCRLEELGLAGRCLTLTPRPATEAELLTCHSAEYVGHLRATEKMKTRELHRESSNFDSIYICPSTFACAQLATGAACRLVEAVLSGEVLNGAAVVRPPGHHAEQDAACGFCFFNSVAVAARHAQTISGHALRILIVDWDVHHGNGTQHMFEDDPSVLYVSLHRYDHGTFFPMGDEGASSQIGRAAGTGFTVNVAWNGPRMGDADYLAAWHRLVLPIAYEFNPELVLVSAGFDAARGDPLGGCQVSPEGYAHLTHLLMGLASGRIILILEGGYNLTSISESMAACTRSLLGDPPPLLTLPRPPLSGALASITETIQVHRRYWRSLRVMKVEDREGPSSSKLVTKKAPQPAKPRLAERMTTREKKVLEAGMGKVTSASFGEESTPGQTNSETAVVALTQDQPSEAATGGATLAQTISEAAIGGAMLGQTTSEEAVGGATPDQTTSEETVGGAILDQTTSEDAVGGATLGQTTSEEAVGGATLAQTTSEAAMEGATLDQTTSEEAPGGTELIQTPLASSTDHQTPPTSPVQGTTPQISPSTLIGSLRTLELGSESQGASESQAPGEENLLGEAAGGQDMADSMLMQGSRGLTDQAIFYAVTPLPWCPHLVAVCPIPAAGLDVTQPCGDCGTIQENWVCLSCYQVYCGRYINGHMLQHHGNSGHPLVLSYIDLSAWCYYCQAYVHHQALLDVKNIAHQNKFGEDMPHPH
Described as above.
Experimental: as §4

[11] abbreviates: HDAC1 IC50, preincubation of enzyme and inhibitor 1 h at RT, no irradiation.
Where [12] appears, read: HDAC2 IC50, preincubation of enzyme and inhibitor 1 h at RT, no irradiation.

Where two headings read alike, the source gives them in different places.

Sequence of HDAC2 (Q92769 whole entry): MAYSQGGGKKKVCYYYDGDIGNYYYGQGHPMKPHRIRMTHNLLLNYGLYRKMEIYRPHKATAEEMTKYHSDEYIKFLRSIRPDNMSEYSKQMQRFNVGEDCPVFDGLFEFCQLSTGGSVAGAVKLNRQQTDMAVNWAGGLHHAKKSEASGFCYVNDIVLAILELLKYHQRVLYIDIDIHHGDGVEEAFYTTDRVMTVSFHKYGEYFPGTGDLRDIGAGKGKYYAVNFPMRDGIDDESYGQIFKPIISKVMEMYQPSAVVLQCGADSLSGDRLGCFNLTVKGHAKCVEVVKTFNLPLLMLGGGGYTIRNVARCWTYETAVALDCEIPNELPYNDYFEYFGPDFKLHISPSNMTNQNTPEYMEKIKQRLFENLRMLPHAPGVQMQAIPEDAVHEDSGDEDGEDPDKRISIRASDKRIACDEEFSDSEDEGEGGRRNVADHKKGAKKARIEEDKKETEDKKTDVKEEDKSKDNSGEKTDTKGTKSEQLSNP

Take `CCCNNC(=O)c1ccc(CN(CC(=O)NCc2ccccc2)C(=O)c2ccc(N(C)C)cc2)cc1` [compound 5]: the IC50 in [1] is 10 µM.

As for `O=C(CCCCCCC(=O)Nc1ccccc1)NO` [vorinostat, reference compound], the EC50 in data set [2] (MV-3, 72 h) came out at 1.88 ± 0.73 µM.

Consider `COc1cc(COc2ccc(-c3ccccc3)cc2NC(=O)c2ccc(NC(C)=O)cc2)c([N+](=O)[O-])cc1OC` [ST17, 4-Acetamido-N-(4-((4,5-dimethoxy-2-nitrobenzyl)-oxy)-[1,1′-biphenyl]-3-yl)-benzamide], for which the EC50 in data set [2] (MV-3, light or radiation study, incubation time 120 h, no irradiation) was found to be 16.2 ± 4.1 µM; in data set [2] (MV-3, light or radiation study, with UV irradiation (10 min, 365 nm) of ST17, 120 h) it was 4.64 ± 0.93 µM; in [3] (incubation time 120 h, no irradiation), 11.2 ± 1.7 µM; in data set [3] (with UV irradiation (10 min, 365 nm) of ST17, 120 h), 6.78 ± 0.58 µM; in data set [5] (18 h), 5.98 ± 1.24 µM; in data set [5], 0.392 ± 0.07 µM. For the same compound, the EC50 in data set [6] (18 h) amounted to 3.55 ± 2 µM; in data set [6] it was 0.783 ± 0.139 µM. Further, the “conversion to parent HDAC inhibitor ST13 upon irradiation (HPLC)” value in data set [4] (λ = 365 nm, in DMSO, room temperature) is recorded as 82%. For the same compound, the “concentration of released ST13 following irradiation (HPLC)” value in data set [4] (initial ST17 concentration 100 µM, 365 nm) was determined as 81.67 µM. Further, the “increase of activity by light-induced activation compared to untreated ST17, MV-3” value in [5] (whole cell HDAC assay) stood at 15 fold. Moreover, the “increase of activity by light-induced activation compared to untreated ST17, MDA-MB-231” value in [6] (whole cell HDAC assay) came out at 4.5 fold. The IC50 in data set [7] (setting [11]) is 0.84 ± 0.308 µM; in data set [7] (HDAC1 IC50, with UV irradiation (10 min, 365 nm) of ST17, preincubation 1 h at RT), 0.04 ± 0.008 µM; in data set [8] (setting [12]), 1.71 ± 0.83 µM; in [8] (HDAC2 IC50, with UV irradiation (10 min, 365 nm) of ST17, preincubation 1 h at RT), 0.072 ± 0.012 µM; in [9] (HDAC3 IC50, preincubation of enzyme and inhibitor 1 h at RT, no irradiation) it was greater than 10 µM; in data set [9] (HDAC3 IC50, with UV irradiation (10 min, 365 nm) of ST17, preincubation 1 h at RT) it was 8.58 ± 0.76 µM. Further, the IC50 in [10] was greater than 10 µM; in data set [10] (read-out: HDAC6 IC50, with UV irradiation (10 min, 365 nm) of ST17, preincubation 15 min at RT) it was greater than 10 µM.

`CC(=O)Nc1ccc(C(=O)Nc2ccccc2O)cc1` [ST01, 4-Acetamido-N-(2-hydroxyphenyl)-benzamide]: the IC50 in data set [7] (setting [11]) and in data set [8] (setting [12]) was greater than 10 µM throughout.

Broadly, the IC50 is the point on the concentration scale where inhibition reaches its midpoint. By EC50 is commonly meant the concentration needed to bring the measured effect to its halfway point.
